In patent US8350049B2, “Immobilized 1,2-benzisothiazolin-3-one” (priority 2006, dated 2013):

What was measured:
Escherichia coli [1] = experiment: JIS Z2801:2000 (E) test, water-based interior flat paint; type: cell-based; settings: contact time 8 hrs; active conc. 0.05%
Procedure: The activity of the immobilized BIT/ZnO complex from Example 9 as a dry-film bactericide against Escherichia coli was determined in ICI UK, Diamond Matt is paint, a commercially available water-based interior flat paint (40% acrylic binder) according to the JIS Z2801:2000 (E) test (Japanese Industrial Standard Z2801:2000 (E) test, Antimicrobial products—Test for antimicrobial activity and efficacy).
(§1) The complex was coated on to Leneta Scrub Resistance test panels, with a dry film thickness of 200 micrometers, with a foam roller allowing a drying time of 18 hours between coats. The panels were equilibrated in the dark for 7 days. Subsamples were cut (each 50 mm×50 mm). The samples were inoculated with a suspension of the test bacteria and then incubated in chambers (1 per species) at 20° C. and 65% relative humidity.
Swabs were employed for recovery of the bacteria. From the blank sample 1.8×10^5 cfu/cm^2 were recovered. This number was taken as the starting bacterial load on the surface.

[2] = test system: Pseudomonas aeruginosa DSM 939; experiment: as above; type: cell-based; settings: contact time 8 hrs; active conc. 0.05%
Procedure: as §1
The activity of the immobilized BIT/ZnO complex from Example 8 as a dry-film bactericide against Pseudomonas aeruginosa DSM 939 was determined in ICI UK, Diamond Matt paint, a commercially available water-based interior flat paint (40% acrylic binder) according to the JIS Z2801:2000 (E) test. The microbiological test was performed according to the procedure described in Example 16.

[3] = test system: Pseudomonas aeruginosa DSM 939; experiment: JIS Z2801 test, interior acrylic wall paint of example 15; type: cell-based; settings: contact time 8 hrs; active conc. 0.05%
Procedure: as §1
The activity of the immobilized BIT/ZnO complex from Example 8 as a dry-film bactericide against Pseudomonas aeruginosa DSM 939 was determined in the paint described in example 15 according to the JIS Z2801 test. The microbiological test was performed according to the procedure described in to Example 16.

[4] = test system: Pseudomonas aeruginosa DSM 939; experiment: JIS Z2801 test after 24 h water leaching (severe environmental conditions), paint of example 15; type: cell-based; settings: specimens leached in water 24 hours; contact time 24 hrs; active conc. 0.05%
Procedure: as §1
The activity of the immobilized BIT/ZnO complex from Example 8 as a dry-film bactericide after aging against Pseudomonas aeruginosa DSM 939 was determined in the paint described in example 15 according to the JIS Z2801 test. The microbiological test was performed according to the procedure described in Example 16. After equilibration, the specimens were leached in water (24 hours) to simulate use conditions in a severe environment. The paint film was cleaned by water jet.

Escherichia coli [5] = experiment: JIS Z2801 test after 24 h water leaching (severe environmental conditions), interior flat paint; type: cell-based; settings: specimens leached in water 24 hours; contact time 24 hrs; active conc. 0.05%
Procedure: as §1
The activity of the immobilized BIT/ZnO complex from Example 8 as a dry-film bactericide after artificial aging against Escherichia coli was determined in ICI UK, Diamond Matt paint, a commercially available water-based interior flat paint (40% acrylic binder) according to the JIS Z2801 test. The paint specimens were prepared as described in example 19. The microbiological test was performed according to the procedure described in Example 16. After equilibration, the specimens were leached in water (24 hours) to simulate use conditions in a severe environment. The paint film was cleaned by water jet.

[6] = ambient temperature; cited from earlier work
[7] = test system: Pseudomonas aeruginosa DSM 939; experiment: Dry-film bactericide test, modified Swiss Standard SNV195120, water-based interior flat paint; type: cell-based
Procedure: The activity of the immobilized BIT/ZnO complex from Example 8 as a dry-film bactericide against Pseudomonas aeruginosa DSM 939 was determined in an ICI UK, Diamond Matt paint, a commercially available water-based interior flat paint (40% acrylic binder) according to the modified Swiss Standard SNV195120, which is described below
The immobilized BIT/ZnO complex from example 8 was incorporated into the water-based interior flat paint at the levels shown in the Table below. The paints were allowed to equilibrate for one week at room temperature.
A quantity of 50 mg of the BIT/ZnO complex was mixed with 100 g of the paint (resulting in 0.05% of the specimen 1 in the table below, the other specimens were prepared accordingly). Round filter papers (5.5 cm diameter) were coated with the test material to a thickness of 150 g/m2 wet and the resulting specimens dried at room temperature.
One half of the test specimen was leached by tap water (9 liters per m^2) in a beaker. The specimens were dried at room temperature and sterilized by gamma radiation from a cobalt 60 source (25 kGy). In the microbiological test, Pseudomonas aeruginosa DSM 939 was used as the bacteria source.
Liquid cultures of each bacterial strain were incubated over night at appropriate temperatures and then diluted 1:100,000 to result in a count of 10^4 cfu per ml. […]

[8] = test system: Pseudomonas aeruginosa DSM 939; experiment: Dry-film bactericide test, modified Swiss Standard SNV195120, water-based interior eggshell paint; type: cell-based; set-up: key: 0H: No bacterial growth under the specimen, inhibition zone on the nutrient.; 0: No growth of bacteria under the specimen.; Growth of bacteria under the specimen
Procedure: The activity of the immobilized BIT/ZnO complex from Example 8 as a dry-film bactericide against Pseudomonas aeruginosa DSM 939 was determined in a commercially available water-based interior eggshell paint (40% acrylic binder with an adhesion promoter) according to the modified Swiss Standard SNV195120. The composition of the paint, which is typically applied in wet rooms, is set out below.
The microbiological test was performed according to the procedure described in Example 14.

Zinc Pyrithione [ZPT]
Kill rate % related to blank paint (Escherichia coli [1]): 96.4%
Log (Cfu/cm^2) (Escherichia coli [1]): 3.76 Log (Cfu/cm^2)
Kill rate % related to blank paint [2]: 69.40%
Log (Cfu/cm^2) [2]: 4.18 Log (Cfu/cm^2)
Kill rate % related to blank paint [3]: 39.5%
Log (Cfu/cm^2) [3]: 4.66 Log (Cfu/cm^2)
Kill rate % related to blank paint [4]: 85.5%
Log (Cfu/cm^2) [4]: 3.04 Log (Cfu/cm^2)
Kill rate % related to blank paint (Escherichia coli [5]): 20%
Log (Cfu/cm^2) (Escherichia coli [5]): 3.04 Log (Cfu/cm^2)

O=c1[nH]sc2ccccc12 [BIT, 1,2-benzisothiazolin-3-one]
solubility of BIT in methanol [6]: greater than 5%

CN(C)C(=S)SSC(=S)N(C)C [Thiram, tetramethylthiuram disulfide]
Psa unleached ([7]; active conc. 0.1%): 0
Psa unleached ([7]; active conc. 0.2%): 0
Psa unleached ([8]; active conc. 0.1%): G
Psa leached 24 h ([8]; active conc. 0.1%): G
Psa unleached ([8]; active conc. 0.2%): G
Psa leached 24 h ([8]; active conc. 0.2%): G
